EC50 data for six molecules are collected here from EP3046573B1, “AMYLIN ANALOGUES” (Zealand Pharma A/S, priority 2013, dated 2015).

Read-outs that look alike come from different tables or passages of the source. Numbered stars: 1 amine (or outer) side, 2 acyl side, 3 side chain; on linkers, the order of the positions; unused ones are H or OH. Bridge positions count the residues as written; N and C are the ends. Square brackets hold non-standard residues; d marks the D form. Peptide text beside a SMILES is read from it. * marks the point of attachment. C20 diacid = O=C(O)CCCCCCCCCCCCCCCCCCC(=O)*; γGlu = O=C(O)[C@H](CCC(=O)[*:2])N[*:1]; Hyp = O=C(O)[C@@H]1C[C@@H](O)CN1; NMeI = CC[C@H](C)[C@H](NC)C(=O)O; Sar = CNCC(=O)O

The target in assay [1] is T1, human calcitonin receptor (hCTR2) (Homo sapiens, UniProt P30988).
T1 construct: expressed in transfected cells
T1 sequence (P30988 25-474): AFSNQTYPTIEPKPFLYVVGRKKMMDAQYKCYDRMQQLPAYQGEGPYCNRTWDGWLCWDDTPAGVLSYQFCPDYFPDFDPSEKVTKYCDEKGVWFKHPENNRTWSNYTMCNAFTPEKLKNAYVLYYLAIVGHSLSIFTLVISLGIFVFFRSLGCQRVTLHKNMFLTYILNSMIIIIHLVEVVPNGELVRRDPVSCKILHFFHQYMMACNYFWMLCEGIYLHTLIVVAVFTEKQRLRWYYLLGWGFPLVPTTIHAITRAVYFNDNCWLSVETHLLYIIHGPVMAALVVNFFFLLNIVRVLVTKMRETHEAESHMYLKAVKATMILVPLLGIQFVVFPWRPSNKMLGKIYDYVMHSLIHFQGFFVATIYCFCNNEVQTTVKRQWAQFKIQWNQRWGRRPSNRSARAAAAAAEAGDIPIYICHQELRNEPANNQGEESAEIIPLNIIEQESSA
Nature of the assay: hCTR2 assay: induction of cAMP (AlphaScreen cAMP Assay kit) in COS7 cells expressing hCTR2. It is filed as cell-based. An outline of the steps: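 Stable hCTR2 clone in RAMP-naive COS7 cells; peptides titrated in Tyrode buffer (pH 7.4) with 100 µM IBMX, 0.1% casein, 15 min at 37° C. cAMP read by AlphaScreen after lysis; EC50 and efficacy relative to pramlintide from 4PL fit.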

Assay [2] deals with T2, human amylin receptor 3 (hAMYR3) consisting of hCTR2 co-expressed with human Receptor Activity Modifying Protein 3 (hRAMP3) (Homo sapiens, UniProt O60896+P30988).
T2 construct: expressed in transfected cells
T2 sequence (P30988 25-474): T1 sequence (P30988 25-474)
T2 sequence (O60896 24-148 partner): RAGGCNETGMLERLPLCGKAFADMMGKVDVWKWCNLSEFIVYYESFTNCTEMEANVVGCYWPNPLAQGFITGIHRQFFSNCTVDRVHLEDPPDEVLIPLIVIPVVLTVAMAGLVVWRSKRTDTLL
Nature of the assay: hAMYR3 assay: induction of cAMP (AlphaScreen cAMP Assay kit) in COS7 cells expressing hAMYR3. Format: cell-based. The procedure, abridged: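 Stable COS7 clone co-expressing hCTR2 and hRAMP3, stimulated 15 min at 37° C with increasing peptide in Tyrode buffer pH 7.4 with 100 µM IBMX and 0.1% casein. cAMP measured by AlphaScreen after lysis; EC50 and % efficacy versus pramlintide from 4PL fit.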

Setting [3] is: cAMP induction in COS7 cells expressing hCTR2, average of a minimum of 3 determinations, read-out: hCTR2 EC50.
The mark [4] stands for this setting: cAMP induction in COS7 cells expressing hAMYR3, average of a minimum of 3 determinations, read-out: hAMY R3 EC50.

Regarding `CC[C@H](C)[C@@H](C(=O)N[C@@H](CC(C)C)C(=O)N[C@@H](CO)C(=O)N[C@@H](CO)C(=O)N[C@H](C(=O)N[C@@H](CCC(=O)O)C(=O)N[C@H](C(=O)NCC(=O)N[C@@H](CO)C(=O)N[C@@H](CCC(=O)O)C(=O)N[C@H](C(=O)N1CCC[C@H]1C(N)=O)[C@@H](C)O)C(C)C)[C@@H](C)O)N(C)C(=O)[C@H](C)NC(=O)CN(C)C(=O)[C@H](Cc1ccccc1)NC(=O)[C@H](CO)NC(=O)[C@H](CO)NC(=O)[C@H](CO)NC(=O)[C@H](CO)NC(=O)[C@H](CCCNC(=N)N)NC(=O)[C@H](Cc1c[nH]cn1)NC(=O)[C@H](CC(C)C)NC(=O)[C@H](Cc1ccccc1)NC(=O)[C@H](CCC(=O)O)NC(=O)[C@H](C)NC(=O)[C@H](CC(C)C)NC(=O)[C@H](CCCNC(=N)N)NC(=O)[C@H](CCC(=O)O)NC(=O)[C@@H](NC(=O)[C@H](C)NC(=O)[C@@H]1CSSC[C@H](NC(=O)[C@H](CCCNC(=N)N)NC(=O)CC[C@H](NC(=O)CCCCCCCCCCCCCCCCCCC(=O)O)C(=O)O)C(=O)N[C@@H](CCC(=O)O)C(=O)N[C@@H]([C@@H](C)O)C(=O)N[C@@H](C)C(=O)N[C@@H]([C@@H](C)O)C(=O)N1)[C@@H](C)O` [Compound 134, [19CD]-isoGlu-RC()ETATC()ATERLAEFLHRSSSSF-Gly(Me)-A-Ile(Me)-LSSTEVGSETP-NH2] ({C20 diacid-γGlu}-RCETATCATERLAEFLHRSSSSF[Sar]A[NMeI]LSSTEVGSETP-NH2; disulfide 2-7), the EC50 in assay [1] (setting [3]) stood at 0.22 nM; in assay [2] (setting [4]) it was 0.65 nM.
For the molecule `CC[C@H](C)[C@@H](C(=O)N[C@@H](CC(C)C)C(=O)N[C@@H](CO)C(=O)N[C@@H](CO)C(=O)N[C@H](C(=O)N[C@@H](CCC(=O)O)C(=O)N[C@H](C(=O)NCC(=O)N[C@@H](CO)C(=O)N[C@@H](CCC(=O)O)C(=O)N[C@H](C(=O)N1CCC[C@H]1C(N)=O)[C@@H](C)O)C(C)C)[C@@H](C)O)N(C)C(=O)[C@H](C)NC(=O)CN(C)C(=O)[C@H](Cc1ccccc1)NC(=O)[C@H](CO)NC(=O)[C@H](CO)NC(=O)[C@H](CCCNC(=N)N)NC(=O)[C@H](Cc1c[nH]cn1)NC(=O)[C@H](CC(C)C)NC(=O)[C@H](Cc1ccccc1)NC(=O)[C@H](CCC(=O)O)NC(=O)[C@H](C)NC(=O)[C@H](CC(C)C)NC(=O)[C@H](CCCNC(=N)N)NC(=O)[C@H](CCC(=O)O)NC(=O)[C@@H](NC(=O)[C@H](C)NC(=O)[C@@H]1CSSC[C@H](NC(=O)[C@H](Cc2c[nH]c3ccccc23)NC(=O)CC[C@H](NC(=O)CCCCCCCCCCCCCCCCCCC(=O)O)C(=O)O)C(=O)NCC(=O)N[C@@H]([C@@H](C)O)C(=O)N[C@@H](C)C(=O)N[C@@H]([C@@H](C)O)C(=O)N1)[C@@H](C)O` [Compound 161, [19CD]-isoGlu-WC()GTATC()ATERLAEFLHRSSF-Gly(Me)-A-Ile(Me)-LSSTEVGSETP-NH2] ({C20 diacid-γGlu}-WCGTATCATERLAEFLHRSSF[Sar]A[NMeI]LSSTEVGSETP-NH2; disulfide 2-7), the EC50 is 0.084 nM in assay [1] (setting [3]) and 0.19 nM in assay [2] (setting [4]).
The like results for `CC[C@H](C)[C@@H](C(=O)N[C@@H](CC(C)C)C(=O)N[C@@H](CO)C(=O)N[C@@H](CO)C(=O)N[C@H](C(=O)N[C@@H](CCC(=O)O)C(=O)N[C@H](C(=O)NCC(=O)N[C@@H](CO)C(=O)N[C@@H](CCC(=O)O)C(=O)N[C@H](C(=O)N1CCC[C@H]1C(N)=O)[C@@H](C)O)C(C)C)[C@@H](C)O)N(C)C(=O)[C@H](C)NC(=O)CN(C)C(=O)[C@H](Cc1ccccc1)NC(=O)[C@H](CO)NC(=O)[C@H](CO)NC(=O)[C@H](CCCNC(=N)N)NC(=O)[C@H](Cc1c[nH]cn1)NC(=O)[C@H](CC(C)C)NC(=O)[C@H](Cc1ccccc1)NC(=O)[C@H](CCC(=O)O)NC(=O)[C@H](C)NC(=O)[C@H](CC(C)C)NC(=O)[C@H](CCCNC(=N)N)NC(=O)[C@H](CCC(=O)O)NC(=O)[C@@H](NC(=O)[C@H](C)NC(=O)[C@@H]1CSSC[C@H](NC(=O)[C@H](CCCNC(=N)N)NC(=O)CC[C@H](NC(=O)CCCCCCCCCCCCCCCCCCC(=O)O)C(=O)O)C(=O)NCC(=O)N[C@@H]([C@@H](C)O)C(=O)N[C@@H](C)C(=O)N[C@@H]([C@@H](C)O)C(=O)N1)[C@@H](C)O` [Compound 162, [19CD]-isoGlu-RC()GTATC()ATERLAEFLHRSSF-Gly(Me)-A-Ile(Me)-LSSTEVGSETP-NH2] ({C20 diacid-γGlu}-RCGTATCATERLAEFLHRSSF[Sar]A[NMeI]LSSTEVGSETP-NH2; disulfide 2-7) were, in that order, 0.049 nM and 0.14 nM.
The like results for `CC[C@H](C)[C@@H](C(=O)N[C@@H](CC(C)C)C(=O)N[C@@H](CO)C(=O)N[C@@H](CO)C(=O)N[C@H](C(=O)N[C@@H](CCC(=O)O)C(=O)N[C@H](C(=O)NCC(=O)N[C@@H](CO)C(=O)N[C@@H](CCC(=O)O)C(=O)N[C@H](C(=O)N1C[C@H](O)C[C@H]1C(N)=O)[C@@H](C)O)C(C)C)[C@@H](C)O)N(C)C(=O)[C@H](C)NC(=O)CN(C)C(=O)[C@H](Cc1ccccc1)NC(=O)[C@H](CO)NC(=O)[C@H](CO)NC(=O)[C@H](CCCNC(=N)N)NC(=O)[C@H](Cc1c[nH]cn1)NC(=O)[C@H](CC(C)C)NC(=O)[C@H](Cc1ccccc1)NC(=O)[C@H](CCC(=O)O)NC(=O)[C@H](C)NC(=O)[C@H](CC(C)C)NC(=O)[C@H](CCCNC(=N)N)NC(=O)[C@H](CCC(=O)O)NC(=O)[C@@H](NC(=O)[C@H](C)NC(=O)[C@@H]1CSSC[C@H](NC(=O)[C@H](CCCNC(=N)N)NC(=O)CC[C@H](NC(=O)CCCCCCCCCCCCCCCCCCC(=O)O)C(=O)O)C(=O)NCC(=O)N[C@@H]([C@@H](C)O)C(=O)N[C@@H](C)C(=O)N[C@@H]([C@@H](C)O)C(=O)N1)[C@@H](C)O` [Compound 166, [19CD]-isoGlu-RC()GTATC()ATERLAEFLHRSSF-Gly(Me)-A-Ile(Me)-LSSTEVGSET-Hyp-NH2] ({C20 diacid-γGlu}-RCGTATCATERLAEFLHRSSF[Sar]A[NMeI]LSSTEVGSET[Hyp]-NH2; disulfide 2-7) were, in that order, 0.074 nM and 0.11 nM.
Taken in the same sequence, the figures for `CC[C@H](C)[C@@H](C(=O)N[C@@H](CC(C)C)C(=O)N[C@@H](CO)C(=O)N[C@@H](CO)C(=O)N[C@H](C(=O)N[C@@H](CC(=O)O)C(=O)N[C@H](C(=O)NCC(=O)N[C@@H](CO)C(=O)N[C@@H](CC(=O)O)C(=O)N[C@H](C(=O)N1CCC[C@H]1C(N)=O)[C@@H](C)O)C(C)C)[C@@H](C)O)N(C)C(=O)[C@H](C)NC(=O)CN(C)C(=O)[C@H](Cc1ccccc1)NC(=O)[C@H](CO)NC(=O)[C@H](CO)NC(=O)[C@H](CCCNC(=N)N)NC(=O)[C@H](Cc1c[nH]cn1)NC(=O)[C@H](CC(C)C)NC(=O)[C@H](Cc1ccccc1)NC(=O)[C@H](CCC(=O)O)NC(=O)[C@H](C)NC(=O)[C@H](CC(C)C)NC(=O)[C@H](CCCNC(=N)N)NC(=O)[C@H](CC(=O)O)NC(=O)[C@@H](NC(=O)[C@H](C)NC(=O)[C@@H]1CSSC[C@H](NC(=O)[C@H](CCCNC(=N)N)NC(=O)CC[C@H](NC(=O)CCCCCCCCCCCCCCCCCCC(=O)O)C(=O)O)C(=O)N2CCC[C@H]2C(=O)N[C@@H]([C@@H](C)O)C(=O)N[C@@H](C)C(=O)N[C@@H]([C@@H](C)O)C(=O)N1)[C@@H](C)O` [Compound 172, [19CD]-isoGlu-RC()PTATC()ATDRLAEFLHRSSF-Gly(Me)-A-Ile(Me)-LSSTDVGSDTP-NH2] ({C20 diacid-γGlu}-RCPTATCATDRLAEFLHRSSF[Sar]A[NMeI]LSSTDVGSDTP-NH2; disulfide 2-7) were 0.045 nM and 0.095 nM.
Turning to `CC[C@H](C)[C@@H](C(=O)N[C@@H](CC(C)C)C(=O)N[C@@H](CO)C(=O)N[C@@H](CO)C(=O)N[C@H](C(=O)N[C@@H](CC(N)=O)C(=O)N[C@H](C(=O)NCC(=O)N[C@@H](CO)C(=O)N[C@@H](CC(N)=O)C(=O)N[C@H](C(=O)N1CCC[C@H]1C(N)=O)[C@@H](C)O)C(C)C)[C@@H](C)O)N(C)C(=O)[C@H](C)NC(=O)CN(C)C(=O)[C@H](Cc1ccccc1)NC(=O)[C@H](CC(N)=O)NC(=O)[C@H](CC(N)=O)NC(=O)[C@H](CO)NC(=O)[C@H](CO)NC(=O)[C@H](CCCNC(=N)N)NC(=O)[C@H](Cc1c[nH]cn1)NC(=O)[C@H](CC(C)C)NC(=O)[C@H](Cc1ccccc1)NC(=O)[C@H](CCC(=O)O)NC(=O)[C@H](C)NC(=O)[C@H](CC(C)C)NC(=O)[C@H](CCCNC(=N)N)NC(=O)[C@H](CCC(N)=O)NC(=O)[C@@H](NC(=O)[C@H](C)NC(=O)[C@@H]1CSSC[C@H](NC(=O)[C@H](Cc2c[nH]c3ccccc23)NC(=O)[C@H](CCCNC(=N)N)NC(=O)CC[C@H](NC(=O)CCCCCCCCCCCCCCCCCCC(=O)O)C(=O)O)C(=O)N[C@@H](CC(N)=O)C(=O)N[C@@H]([C@@H](C)O)C(=O)N[C@@H](C)C(=O)N[C@@H]([C@@H](C)O)C(=O)N1)[C@@H](C)O` [Compound 174, [19CD]-isoGlu-RWC()NTATC()ATQRLAEFLHRSSNNF-Gly(Me)-A-Ile(Me)-LSSTNVGSNTP-NH2] ({C20 diacid-γGlu}-RWCNTATCATQRLAEFLHRSSNNF[Sar]A[NMeI]LSSTNVGSNTP-NH2; disulfide 3-8), the EC50 in assay [1] and in assay [2] was 0.18 nM in each case.
